Measured values taken from US12485110B2, “Use of ergothioneine for extending lifespan or improving healthspan” (NANJING NUTRABUILDING BIO-TECH CO., LTD., priority 2022, dated 2025).
Entries after “also recorded” stand apart in the source; their conditions may differ.

Assays:
[1] = system: C. elegans; experiment: Lifespan assay (Automated Lifespan Machine); type: in vivo; conditions: for Maximum lifespan: 95th percentile of lifespans; for Median lifespan: N2 wild type, day 0 = day 1 of adulthood; for Mean lifespan: area under survival curve; for Lifespan / survival relative to vehicle control (in words): 5.0 mM (highest treatment group)
Text: N2 (Bristol) wild type strain has been used in this application.
To prevent chemical modification or metabolism of the test article by the food bacteria, worms were fed on a lawn of UV-killed bacteria (UV-i bacteria). An overnight culture of E. coli strain WP-2 was pelleted, washed, filtered, and irradiated. A suspension of UV-i bacteria was spotted on NGM agar containing Streptomycin to inhibit the growth of contaminating bacteria. The quantity and distribution of food bacteria were calibrated to ensure adequate access to food for the duration of assay while maintaining visibility of the worms.
The ALM used herein is based on the Caenorhabditis elegans lifespan machine published by Stroustrup et. al (Stroustrup, N. et al. The Caenorhabditis elegans Lifespan Machine. Nat Methods 10, 665-670 (2013)), with proprietary modifications to improve temperature stability and image acquisition. The scanner unit consists of a modified EPSON V850 and images are processed and analyzed using the ALM software (see id.). The machine time-of-death calls are trained and validated using the “storyboarding” feature of the ALM software.
The lifespan assay was designed and performed according to published and validated methods (Amrit, F. R. G., Ratnappan, R., Keith, S. A. & Ghazi, A. The C. elegans lifespan assay toolkit. Methods 68, 465-475 (2014)), using a modified version of the Automated Lifespan Machine (Stroustrup, N. et al. The Caenorhabditis elegans Lifespan Machine. Nat Methods 10, 665-670 (2013)). Worms were age synchronized by bleaching and eggs were plated directly onto NGM agar seeded with UV-i bacteria (Day 1, hatch). On Day 3, when the worms had reached the late L4 stage, they were transferred to dishes containing 100 μM 5-Fluorodeoxyuridine (FUdR) to suppress progeny. On day 5, the worms were washed off the dishes, and 30-50 worms were plated on each scanner dish. Plates were immobilized inverted on the bed of an Automated Lifespan Machine which scanned two images per hour of the plates continuously for the next 40 days.
Time of death calls exported from the ALM software was analyzed and plotted using the Lifelines software package developed by Cam Davidson-Pilon et. al (Lifelines Version: v0.25.9). Additional analysis performed using the OASIS2 analysis software (Seong Kyu Han et. al. OASIS 2: online application for survival analysis 2 with features for the analysis of maximal lifespan and healthspan in aging research. Oncotarget. 7:56147-56152. (2016)).
The lifespan assay was initiated by expanding all replicate groups to more than 1000 worms, then synchronizing by bleaching and allowing larval worms to hatch and arrest. To eliminate the effect of bacterial metabolism and growth on lifespan of C. elegans (wild type, and not over express β-amyloid peptide) worms, synchronized worms were only exposed to dead food bacteria. To suppress progeny, worms were transferred to media containing 5-Fluorodeoxyuridine (FUdR) within 54-60 hours post-plating. Worms were inspected 24 and 48 hours after this transfer to confirm infertility. Finally, the worms were inspected for general health and morphology before transferring to scanner plates. The scanner plates were incubated for an additional 2 days and inspected again before loading onto scanners.
To obtain high-resolution lifespan data and eliminate confounding factors such as worm handling and operator bias, lifespan data was collected using an Automated Lifespan Machine (ALM) (Stroustrup, N. et al. The Caenorhabditis elegans Lifespan Machine. Nat Methods 10, 665-670 (2013)). Three biological replicates, derived from synchronizing three independently maintained lines of N2 worms, were distributed across instruments. Images of the worms were then collected for the next 35 days with no interruption or manipulations. Some plates were excluded after quality checks, but plate number and worm count for all replicates exceeded the threshold for statistical significance (Table 1, row 1).

[2] = system: C. elegans; experiment: Movement and healthspan analysis (worm activity, morphology, circularity); type: in vivo
Text: Worm movement was tracked from the images acquired by the ALM during the lifespan assay. Worm size and movement features were extracted and analyzed using custom software.
To measure healthspan, active worms were identified using the ALM scanner images from the lifespan assay (see Example 2). The worms' spatial location on the plate and their morphology were quantified throughout their lifespan to assess healthspan.
Worm Activity serves as a proxy for animal health. Changes in spatial distribution of the worms between time points is used to derive aggregate movement for the population over time. Worm Activity is described by two complementary measurements of aggregate movement, Centroid Distance and Spatial Distribution: • Centroid Distance calculates a geometric center for each individual worm, and then measures the minimum collective distance that a group of worms moved between time points. It achieves measurement of the changes in spatial distribution between time-points. • Spatial Distribution uses changes in worm contours between time points to measure the changes in the spatial distribution of the worms' bodies. The normalized distribution of these distances in the population provides a measure of how much the group of worms altered their positions and posture on the plate between two time-points.
For both of these Activity metrics, a plot with higher numbers indicates good health, and all measures are normalized to fall between 0 and 1.
Worm morphology is measured from the worm contours detected in the images. In the process of aging, worms become shorter and stouter over time and their shape is an indicator of their overall health and biological age. The Length is calculated from the central spline fitted to the worm contour and Width is measured from each worm's widest point. The worms' posture also changes with age as they lose the ability to maintain an elongated position. Average Circularity measures how close the shape and posture come to being enclosed by a circle.
Each of these measures are obtained by averaging data for all active worms detected on a plate, then averaging across different replicate plates of the same condition. All measurements are based on worms that are still alive and moving at the time of quantification. All measures start when worms are placed on the scanner at day 3 of adulthood.
Average Circularity. The Average Circularity Assay indicates worm heath by describing how closely the shape and posture of the worms is enclosed within a circle. Healthy, active worms maintain an elongated, albeit sinusoidal posture. As unhealthy and aged worms lose muscle function, they increasingly adopt a curled, bunched, or folded state in addition to a stout and wrinkled morphology.

In the case of `C[N+](C)(C)[C@@H](Cc1c[nH]c(=S)[nH]1)C(=O)[O-]` [Ergo, Ergothioneine], the “Age in days at 25% mortality” value ([1]; 0.1 mM) is reported as 17.97 days, the “Age in days at 50% mortality” value ([1]; 0.1 mM) is reported as 24.16 days and the “Age in days at 75% mortality” value ([1]; 0.1 mM) is reported as 28.15 days. For the same molecule, the “Age in days at 90% mortality” value ([1]; 0.1 mM) was 30.83 days, the “Age in days at 100% mortality” value ([1]; 0.1 mM) was 39 days and the “Dose dependence of lifespan (Kaplan-Meier, FIG. 4A)” value ([1]; 0.1 mM, 0.5 mM and 5.0 mM) was “dose-dependent increase in lifespan”. It also gave a Maximum lifespan ([1]; 0.1 mM) of 33.2 days, a Median lifespan ([1]; 0.1 mM) of 24.2 days and a Mean lifespan ([1]; 0.1 mM) of 23.4 days. The “Age in days at 25% mortality” value ([1]; 0.5 mM) was 18.05 days, the “Age in days at 50% mortality” value ([1]; 0.5 mM) was 24.22 days and the “Age in days at 75% mortality” value ([1]; 0.5 mM) was 28.37 days. The “Age in days at 90% mortality” value ([1]; 0.5 mM) was 30.84 days, the “Age in days at 100% mortality” value ([1]; 0.5 mM) was 37.26 days and the Maximum lifespan ([1]; 0.5 mM) was 33.3 days. For the same molecule, the Median lifespan ([1]; 0.5 mM) was 24.2 days, the Mean lifespan ([1]; 0.5 mM) was 23.5 days and the “Age in days at 25% mortality” value ([1]; 5.0 mM) was 21.04 days. For the same molecule, the “Age in days at 50% mortality” value ([1]; 5.0 mM) was 25.92 days, the “Age in days at 75% mortality” value ([1]; 5.0 mM) was 29.73 days and the “Age in days at 90% mortality” value ([1]; 5.0 mM) was 32.05 days. For the same molecule, the “Age in days at 100% mortality” value ([1]; 5.0 mM) was 38.81 days, the “Lifespan / survival relative to vehicle control (in words)” value [1] was “higher survival than the vehicle control at all timepoints” and the “Lifespan / survival relative to vehicle control (in words)” value ([1]; listed as Ergothioneine) was “significant positive increase in lifespan; also recorded: statistically significant shift in survival”. The “Lifespan increase compared with Resveratrol positive control” value ([1]; 5.0 mM vs 0.1 mM Resveratrol, log-rank tests) was “similarly to, but slightly less than the Resveratrol positive control”, the Maximum lifespan ([1]; 5.0 mM) was 34.6 days and the Median lifespan ([1]; 5.0 mM) was 25.9 days. For the same molecule, the Mean lifespan ([1]; 5.0 mM) was 25.3 days, the “Aggregate movement (Centroid Distance and Spatial Distribution, FIGS. 5A-5B)” value ([2]; 5 mM, over the duration of lifespan) was “more vigorous movement” and the “Average circularity (FIG. 7)” value ([2]; ergothioneine-treated worms vs control, peaking at around 16 days) was “only slight differences”. The “Worm morphology (length, width, area, FIGS. 6A-6C)” value ([2]; up to the 5 mM dosage, over the lifespan) was “did not produce detectable changes in morphology”.
